For data set [1], the system named is elastase induced murine pulmonary emphysema. Briefly: Elastase-induced murine pulmonary emphysema model. The data set is classed as in vivo, mice. The note with it: for pre mortem lung compliance (Flexivent): 4 weeks after intra-nasal elastase, drug intra-peritoneal in peanut oil, FIG. 3; for severity of pulmonary emphysema: vs vehicle treated control animals. Here is the method:
To investigate the role that LTA4H plays in the pathogenesis of human diseases, murine models of elastase-induced pulmonary emphysema (Example 1) and LPS-induced acute lung injury (Example 3) were tested. In order to establish the elastase-dose dependent severity of murine pulmonary emphysema, increasing doses of porcine elastase were instilled into murine lungs of 129J background via the intra-nasal route. Four weeks after elastase was instilled, mouse lungs were harvested en block, inflated with 1% low melting point agarose gel (LMPA) at 25 cm melted 1% LMPA pressure. Lungs were then fixed overnight in formaldehyde. […] This confirmed that intra-nasal elastase administration was able to induce pulmonary emphysema in a dose-dependent manner.
(§1) In order to establish the biological roles of LTA4H AP activity in the pathogenesis of pulmonary emphysema, wild type mice were exposed to porcine elastase via the intra-nasal route and then treated with one LTA4H AP activity augmentor (compound 66, MDM), a LTA4H AP activity inhibitor (compound 67, PDM), or vehicle (peanut oil). Synthesis of MDM was accomplished by treatment of 4-benzyl phenol in dimethylformamide solvent with potassium hydroxide followed by methyl iodide (FIG. 1). Synthesis of compound PDM was accomplished by treatment of 4-benzyl phenol in dimethylformamide solvent with potassium hydroxide followed by butyl iodide (FIG. 1). The peptidase activity of the compound was determined following the method of Jiang and co-workers (2008).
Elastase (0.75 μg elastase per gm mouse weight) was instilled via the intra-nasal route. After 4 weeks, mice were sedated, intubated, and ventilated with Sireq Flexivent to measure lung compliance pre mortem. It was understood that lungs with more severe emphysema would have lost more elasticity, and thus, their lung compliance would be greater when measured by a small animal ventilator (FIG. 3). Once lung compliance was measured, mice were euthanized. Lungs were harvested en block without damaging outer coverings. Once harvested, lungs were inflated with 1% low melting point agarose gel (LMPA) at 25 cm melted 1% LMPA gel pressure. Once inflated, the total lung volumes were measured by volume displacement technique (FIG. 4). It was understood that lungs with more severe emphysema would have lost more elasticity, and thus their lung volume would be greater after being inflated with a uniform pressure. After the total lung volume measurement, lungs were fixed in para-formaldehyde overnight. On the following day, whole lungs were photographed (FIG. 5). Lungs with more severe emphysema would have lost more elasticity, and thus their lungs would be larger after being fixed with para-formaldehyde. The lungs were then paraffin embedded, paraffin sections were H&E stained (FIG. 6A), and morphometry was performed by using NIH ImagePro software and custom written macro string (Shim et al., 2006; Shim et al., 2010; Zheng et al., 2000; Zu et al., 1999). Alveolar intercepts were calculated and averaged from at least 8 animals in each group to yield chord length of each group (FIG. 6B). It was understood that alveoli from lungs with more severe emphysema would be larger after losing more elasticity and thus their chord length of the alveoli would be longer.

Data set [2] has as its target T1, human recombinant LTA4H enzyme (LTA4H AP activity) (Homo sapiens, UniProt P09960).
T1 sequence (P09960 1-611): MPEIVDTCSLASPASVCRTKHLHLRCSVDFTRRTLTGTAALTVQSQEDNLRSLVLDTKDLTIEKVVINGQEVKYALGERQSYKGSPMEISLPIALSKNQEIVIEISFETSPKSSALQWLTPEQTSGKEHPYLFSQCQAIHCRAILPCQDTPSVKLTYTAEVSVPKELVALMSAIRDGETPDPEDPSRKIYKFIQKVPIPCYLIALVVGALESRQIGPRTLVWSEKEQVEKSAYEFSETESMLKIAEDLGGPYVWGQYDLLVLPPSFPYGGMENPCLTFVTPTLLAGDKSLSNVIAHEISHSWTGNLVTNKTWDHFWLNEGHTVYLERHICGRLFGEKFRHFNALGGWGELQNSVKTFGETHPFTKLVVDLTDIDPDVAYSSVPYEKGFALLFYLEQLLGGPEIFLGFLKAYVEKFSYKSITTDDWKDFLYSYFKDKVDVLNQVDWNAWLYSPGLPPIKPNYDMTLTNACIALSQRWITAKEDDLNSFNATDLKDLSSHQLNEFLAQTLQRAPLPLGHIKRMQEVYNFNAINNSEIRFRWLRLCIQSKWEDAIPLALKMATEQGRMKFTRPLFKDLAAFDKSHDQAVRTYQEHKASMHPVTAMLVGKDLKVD
Briefly: In vitro aminopeptidase activity assay. The data set is classed as biochemical. The note with it: recombinant LTA4H + Ala-pNA; 500 μM, 10 μM, 5 μM, 100 nM; FIG. 2. Here is the method: FIG. 2. In vitro aminopeptidase activity assay. The peptidase activity of compounds was determined following the method of Jiang and co-workers (2008). […] No Enzyme=buffer. Enzy=buffer+recombinant LTA4H. 500 μM, 10 μM, 5 μM, and 100 nM=buffer+recombinant LTA4H+Ala-pNA+MDM.
FIG. 7. Biological activities of 2-hydroxypropyl-β-cyclodextrin encapsulated 4-methoxydiphenylmethane (“CDX-MDM”). […] No Enzyme=buffer. 0 M=buffer+recombinant LTA4H+Ala-pNA+no MDM. 500 μM, 10 μM, 5 μM, and 100 nM=buffer+recombinant LTA4H+Ala-pNA+MDM (500 μM, 10 μM, 5 μM, or100 nM).
as §1

Data set [3] in a line: Chemical stability in pH 6.7 buffer. Format: physicochemical.
The nature of data set [4]: Encapsulation and equilibrium solubility test (HPLC). Format: physicochemical. Here is the method:
To 5.3 mg (1.0 equivalent) of MDM was added 160.0 mg (4.0 equivalents) of CDX followed by 4.8 mL of water. […] The homogeneity of the solution was analyzed by HPLC.
Solubility measurement. […] Method: isocratic 80:20 acetonitrile-water at 1.0 mL/min, injection volume=5 μL, monitoring at λ=250 nm.
The method was carried out above with phosphate buffer saline (PBS, Ampresco, 20× concentrate, pH7.5; 500 μL of PBS concentrate was added to 9500 μL of water). To 6.0 mg (1.0 equivalents) of MDM was added 180.0 mg (4.0 equivalents) of CDX followed by 5.8 mL of water. […] The homogeneity of the solution was analyzed by HPLC.
The method was carried out as above. To 2.4 mg (1.0 equivalents) of MDM was added 0.035 g (2.0 equivalents) of CDX followed by 2.4 mL of PBS solution. […] The homogeneity of the solution was analyzed by HPLC.

A short description of a further data set: Bioavailability in mice. The data set is classed as in vivo.
A short description of data set [5]: Toxicity in murine pre-clinical models. Format: in vivo.
In data set [6] the target is T1, human recombinant LTA4H enzyme (LTA4H AP activity). The note with it: Jiang et al. (2008); cited from earlier work.

For `COc1ccc(Cc2ccccc2)cc1` [MDM, 4-methoxydiphenylmethane], in data set [1], the “pre mortem lung compliance (Flexivent)” value is recorded as “significantly lower lung compliance” and the “severity of pulmonary emphysema” value is listed as “significantly less severe”. In addition, in data set [1] (vs PDM or vehicle control, FIG. 4), the “post mortem total lung volume (volume displacement)” value is given as “much less emphysematous”. Also, in data set [1] (vs PDM or vehicle control, FIG. 5), the “gross size of inflated whole lungs” value is recorded as “much smaller”. Further, the “lung histology chord length” value in data set [1] (vs drug 67 or vehicle (peanut oil), FIG. 6) is on record as “shorter”. Also, the “LTA4H AP activity” value in data set [2] is “augment”. Further, the “chemical stability in pH 6.7 buffer” value in data set [3] is recorded as “stable”. Besides, in data set [4] (1:2 MDM:CDX in PBS, calculated 5.04 mM), the “concentration in solution by standard curve” value was 2950 µM. Moreover, the “fraction of the MDM in the homogeneous solution at equilibrium” value in data set [4] (1:2 ratio of MDM:CDX in PBS) turned out to be 59%. Moreover, in data set [4] (PBS solution), the “solubility with 2 equivalents of CDX” value was determined as 590 µg/mL. Further, the bioavailability entry in “Bioavailability in mice” (encapsulated formulation with 2-hydroxypropyl-β-cyclodextrin, intra-nasal administration to mice) is recorded as “bioavailable”. In addition, in the data set “Bioavailability in mice” (intra-peritoneal injection of mice, MDM combined with peanut oil), the bioavailability entry is on record as “bioavailable”.
For `COc1ccc(Oc2ccccc2)cc1` [1-methoxy-4-phenoxybenzene], the mortality entry in data set [5] is “greater than 85%”. The “LTA4H AP activity in vitro” value in data set [6] is listed as “upregulates”. Besides, the “chemical stability in pH 6.7 buffer” value in data set [3] is recorded as “chemical instability”.
Regarding `CCCCCOc1ccc(Cc2ccccc2)cc1` [PDM, 4-pentoxydiphenylmethane], in data set [1], the “pre mortem lung compliance (Flexivent)” value is given as “high lung compliance similar to lungs treated with vehicle” and the “severity of pulmonary emphysema” value is reported as “deleterious outcomes”. Besides, the “LTA4H AP activity” value in data set [2] is “decrease”.

Source of the values: patent publication US9617197B2, “Compositions and methods for treating inflammatory diseases” (University of Virginia Patent Foundation, priority 2010, dated 2017).
